Results published in patent US5763249A, “Antibody-mediated reduction of α-ketoamides” (The Regents of the University of California, priority 1991, dated 1998).

Key:
[1] = target: monoclonal antibody A5, specific for (raised against) the phosphonate hapten 3; assay: Fluorescence quenching binding of inhibitor to antibody A5; conditions: from fluorescence quenching experiments; inhibitor of the antibody-catalyzed reaction
Experimental: (§1) Greater than 25 turnovers were measured with no apparent change in Vmax.

[2] = tested on: monoclonal antibody A5, specific for (raised against) the phosphonate hapten 3; assay: Antibody A5-catalysed NaBH3CN-dependent reduction of ketoamide 1, steady-state kinetics (HPLC, Lineweaver Burk); assay type: biochemical; conditions: substrate ketoamide 1; 13μM antibody, 1mM NaBH3CN, 22° C, 50mM NaCl, 50mM MES buffer, 10% methanol
Experimental: Monoclonal antibodies specific for the phosphonate 3 were purified to homogeneity by chromatography on protein-A coupled sepharose, as determined by polyacrylamide gel electrophoresis. Eight of these antibodies were assayed for their ability to reduce the ketoamide 1 by high performance liquid chromatography (HPLC). The (S)-(--)-α-methylbenzylamine group was incorporated into the ketoacid substrate to facilitate analysis of reaction specificity, it having previously been shown that antibodies specific for the phosphonate 3 are relatively insensitive to substitutions in the aliphatic linker. The ketoamide 1 was prepared by a modification of the method of Westerberg and coworkers (Westerberg, D.A., et aL, J. Med Chem. 1989, 32, 236) for the preparation of 4-nitrophenylpyruvic acid. […]
Consequently, all kinetic parameters were measured in the presence of 13μM antibody, 1mM NaBH3 CN at 22° C in 50mM NaCl, 50mM MES buffer. […] Initial reaction rates were determined by measuring the amounts of 1 and 2 (both diastereomers) relative to a p-cresol internal standard using analytical reverse-phase HPLC (Rainin CYNAMAX MICROSORB C18, a common silica-C18 HPLC column packing, with a continuous phase consisting of 40-80% of TFA/CH3 CN in 0.1% aqueous TFA).
as §1

Row | Km [2] [µM] | Compound | Kd [1] [nM] | κcat [2] [min⁻¹]
1 |  | COP(=O)(O)Oc1ccc([N+](=O)[O-])cc1 [4-nitrophenyl methylphosphate] | 610 | 
2 | 1240 | CC(NC(=O)C(=O)Cc1ccc([N+](=O)[O-])cc1)c1ccccc1 (stereo not drawn) [compound 1, 1-(p-nitrobenzyl)-2-(α-methyl-benzylamino)ethanedione] |  | 0.104
